Patent publication US20240308968A1, “FUNGICIDAL SUBSTITUTED HETEROCYCLES” (FMC Corporation, priority 2021, published 2024)

What was measured:
Assay type in all cases: in vivo
[1] = test system: Alternaria solani; assay: Test F: preventive spray on tomato seedlings, tomato early blight disease rating; details: 100 = 100% disease control, 0 = no control; for pest or weed control at 50 ppm / pest or weed control at 250 ppm: Alternaria solani, 120 h
Summary of the method: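 Tomato seedlings were sprayed to run-off with compound suspensions in ppm (acetone/water with PEG400 surfactant) and inoculated with Alternaria solani spores the next day. Plants were held 48 h saturated at 27 °C, then 3 days at 20 °C. Disease was rated visually, with 100 as full control and 0 as none, relative to controls.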

[2] = test system: Puccinia recondita f. sp. Tritici; assay: Test B: preventive spray on wheat seedlings, wheat leaf rust disease rating; details: 100 = 100% disease control, 0 = no control; for pest or weed control at 50 ppm / pest or weed control at 250 ppm: Puccinia recondita, 192 h
Summary of the method: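 Compounds in acetone/water (50/50) with 50-250 ppm PEG400 sprayed to run-off on wheat seedlings; inoculated with P. recondita spores next day. Held 24 h saturated at 20° C., then 7 days in growth chamber at 20° C. before rating; 100 = full control, 0 = none versus controls.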

[3] = test system: Blumeria graminis f. sp. Tritici; assay: Test C: preventive spray on wheat seedlings, wheat powdery mildew disease rating; details: 100 = 100% disease control, 0 = no control; for pest or weed control at 50 ppm / pest or weed control at 250 ppm: Blumeria graminis, 192 h
Summary of the method: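 Wheat seedlings sprayed to run-off with test suspension (acetone 3% dissolution, then acetone/water 50/50 with 50–250 ppm PEG400), inoculated next day with Blumeria graminis spore dust. Held 8 days at 20° C in growth chamber, then visually rated (100 = full control, 0 = none, relative to controls).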

[4] = test system: Botrytis cinerea; assay: Test E: preventive spray on tomato seedlings, tomato Botrytis disease rating; details: 100 = 100% disease control, 0 = no control; for pest or weed control at 50 ppm / pest or weed control at 250 ppm: Botrytis cinerea, 120 h
Summary of the method: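 Tomato seedlings sprayed to run-off with compound suspended in acetone/water with PEG400 surfactant, then inoculated next day with Botrytis cinerea spores. Held 48 h saturated at 20 °C, then 3 days at 24 °C; disease rated visually, 0 to 100% control relative to controls.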

[5] = test system: Zymoseptoria tritici; assay: Test A: preventive spray on wheat seedlings, wheat leaf blotch disease rating; details: 100 = 100% disease control, 0 = no control; for pest or weed control at 50 ppm / pest or weed control at 250 ppm: Zymoseptoria tritici, 456 h
Summary of the method: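 Compounds in acetone/water (50/50) with 50–250 ppm PEG400, sprayed to run-off on wheat seedlings. Inoculated next day with Z. tritici spores, 48 h saturated atmosphere at 24 °C, then 17 days at 20 °C before disease rating.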

[6] = test system: Phakopsora pachyrhizi; assay: Test D: preventive spray on soybean seedlings, Asian soybean rust disease rating; details: 100 = 100% disease control, 0 = no control; for pest or weed control at 50 ppm / pest or weed control at 250 ppm: Phakopsora pachyrhizi, 216 h
Summary of the method: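 Compounds in acetone/water (50/50) with 50–250 ppm PEG400 sprayed to run-off on soybean seedlings; inoculated next day with P. pachyrhizi spores, held 24 h saturated at 22° C, then 8 days at 22° C before visual disease rating.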

Structure (SMILES): CCOC(=O)c1nn(-c2cc(OC)cc(OC)c2Cl)c(-c2ccc(F)cc2Cl)c(C)c1=O [Compound 98]
- Test F disease control rating ([1]; 250 ppm): 0%
- Test B disease control rating ([2]; 250 ppm): 98%
- Test C disease control rating ([3]; 250 ppm): 0%
- Test E disease control rating ([4]; 250 ppm): 96%
- Test A disease control rating ([5]; 250 ppm): 0%
- Test D disease control rating ([6]; 250 ppm): 94%

Structure (SMILES): COc1cc(OC)cc(-c2ncncc2-c2c(F)cc(F)cc2F)c1 [Compound 40]
- Test F disease control rating ([1]; 250 ppm): 0%
- Test B disease control rating ([2]; 250 ppm): 9%
- Test C disease control rating ([3]; 250 ppm): 69%
- Test E disease control rating ([4]; 250 ppm): 0%
- Test A disease control rating ([5]; 250 ppm): 0%
- Test D disease control rating ([6]; 250 ppm): 0%

Structure (SMILES): COc1cc(OC)cc(-n2nc(CC#N)c(=O)c(C)c2-c2ccc(F)cc2F)c1 [Compound 31]
- Test F disease control rating ([1]; 50 ppm): 0%
- Test B disease control rating ([2]; 50 ppm): 0%
- Test C disease control rating ([3]; 50 ppm): 0%
- Test E disease control rating ([4]; 50 ppm): 9%
- Test A disease control rating ([5]; 50 ppm): 61%
- Test D disease control rating ([6]; 50 ppm): 0%

Structure (SMILES): CCOC(=O)c1nn(-c2cc(OC)cc(OC)c2)c(-c2ccc(F)cc2F)c(C(=O)OCC)c1=O [Compound 88]
- Test F disease control rating ([1]; 250 ppm): 0%
- Test B disease control rating ([2]; 250 ppm): 0%
- Test C disease control rating ([3]; 250 ppm): 0%
- Test E disease control rating ([4]; 250 ppm): 0%
- Test A disease control rating ([5]; 250 ppm): 0%
- Test D disease control rating ([6]; 250 ppm): 0%

Structure (SMILES): COc1cc(-c2cc(C#N)c(=O)n(C)c2-c2c(F)cc(F)cc2F)cc(OC)c1Cl [Compound 71, 5-(4-chloro-3,5-dimethoxyphenyl)-1,2-dihydro-1-methyl-2-oxo-6-(2,4,6-trifluorophenyl)-3-pyridinecarbonitrile]
- pest or weed control at 50 ppm ([1]; 50 ppm): 0%
- pest or weed control at 50 ppm ([2]; 50 ppm): 99%
- pest or weed control at 50 ppm ([3]; 50 ppm): 47%
- pest or weed control at 50 ppm ([4]; 50 ppm): 63%
- pest or weed control at 50 ppm ([5]; 50 ppm): 87%
- pest or weed control at 50 ppm ([6]; 50 ppm): 92%

Structure (SMILES): COc1cc(OC)c(Cl)c(-n2c(-c3ccc(F)cc3Cl)cc(=O)n(C)c2=O)c1 [Compound 36, 1-(2-chloro-3,5-dimethoxyphenyl)-6-(2-chloro-4-fluorophenyl)-3-methyl-2,4(1H,3H)-pyrimidinedione]
- pest or weed control at 50 ppm ([1]; 50 ppm): 0%
- pest or weed control at 50 ppm ([2]; 50 ppm): 100%
- pest or weed control at 50 ppm ([3]; 50 ppm): 92%
- pest or weed control at 50 ppm ([4]; 50 ppm): 88%
- pest or weed control at 50 ppm ([5]; 50 ppm): 95%
- pest or weed control at 50 ppm ([6]; 50 ppm): 89%

Structure (SMILES): Cc1ncnc(-c2ccc(F)cc2Cl)c1-c1ccc(F)cc1Cl [Compound 43]
- Test F disease control rating ([1]; 250 ppm): 0%
- Test B disease control rating ([2]; 250 ppm): 0%
- Test C disease control rating ([3]; 250 ppm): 0%
- Test E disease control rating ([4]; 250 ppm): 0%
- Test A disease control rating ([5]; 250 ppm): 0%
- Test D disease control rating ([6]; 250 ppm): 78%

Structure (SMILES): Cc1c(-c2ccc(F)cc2Cl)c(-c2ccc(Br)s2)nn(C)c1=O [Compound 17]
- Test F disease control rating ([1]; 50 ppm): 0%
- Test B disease control rating ([2]; 50 ppm): 68%
- Test C disease control rating ([3]; 50 ppm): 56%
- Test E disease control rating ([4]; 50 ppm): 39%
- Test A disease control rating ([5]; 50 ppm): 99%
- Test D disease control rating ([6]; 50 ppm): 12%

Structure (SMILES): COc1cc(OC)cc(-c2nc(C)nc(C)c2-c2c(F)cc(F)cc2F)c1 [Compound 53, 4-(3,5-dimethoxyphenyl)-2,6-dimethyl-5-(2,4,6-trifluorophenyl)pyrimidine]
- pest or weed control at 50 ppm ([1]; 50 ppm): 97%
- pest or weed control at 50 ppm ([2]; 50 ppm): 100%
- pest or weed control at 50 ppm ([3]; 50 ppm): 100%
- pest or weed control at 50 ppm ([4]; 50 ppm): 96%
- pest or weed control at 50 ppm ([5]; 50 ppm): 100%
- pest or weed control at 50 ppm ([6]; 50 ppm): 97%

Structure (SMILES): COc1cc(OC)c(Cl)c(-n2nc(C)c(=O)c(C)c2-c2ccc(F)cc2F)c1 [Compound 33, 1-(2-chloro-3,5-dimethoxyphenyl)-6-(2,4-difluorophenyl)-3,5-dimethyl-4(1H)-pyridazinone]
- pest or weed control at 50 ppm ([1]; 50 ppm): 94%
- pest or weed control at 50 ppm ([2]; 50 ppm): 100%
- pest or weed control at 50 ppm ([3]; 50 ppm): 100%
- pest or weed control at 50 ppm ([4]; 50 ppm): 98%
- pest or weed control at 50 ppm ([5]; 50 ppm): 100%
- pest or weed control at 50 ppm ([6]; 50 ppm): 100%

Structure (SMILES): CCOC(=O)c1nn(-c2cc(OC)cc(OC)c2Cl)c(-c2ccc(F)cc2)c(C(=O)OCC)c1=O [Compound 126]
- Test F disease control rating ([1]; 50 ppm): 0%
- Test B disease control rating ([2]; 50 ppm): 28%
- Test C disease control rating ([3]; 50 ppm): 0%
- Test E disease control rating ([4]; 50 ppm): 0%
- Test A disease control rating ([5]; 50 ppm): 0%
- Test D disease control rating ([6]; 50 ppm): 0%

Structure (SMILES): COc1cc(OC)cc(-n2c(-c3ccc(F)cc3Cl)c(Cl)c(=O)n(C)c2=O)c1 [Compound 38, 5-chloro-6-(2-chloro-4-fluorophenyl)-1-(3,5-dimethoxyphenyl)-3-methyl-2,4(1H,3H)-pyrimidinedione]
- pest or weed control at 50 ppm ([1]; 50 ppm): 0%
- pest or weed control at 50 ppm ([2]; 50 ppm): 96%
- pest or weed control at 50 ppm ([3]; 50 ppm): 0%
- pest or weed control at 50 ppm ([4]; 50 ppm): 70%
- pest or weed control at 50 ppm ([5]; 50 ppm): 0%
- pest or weed control at 50 ppm ([6]; 50 ppm): 0%

Structure (SMILES): COc1cc(OC)cc(-n2nc(CCl)c(=O)c(C)c2-c2ccc(F)cc2F)c1 [Compound 25]
- Test F disease control rating ([1]; 50 ppm): 0%
- Test B disease control rating ([2]; 50 ppm): 0%
- Test C disease control rating ([3]; 50 ppm): 43%
- Test E disease control rating ([4]; 50 ppm): 34%
- Test A disease control rating ([5]; 50 ppm): 18%
- Test D disease control rating ([6]; 50 ppm): 75%

Structure (SMILES): COC(=O)c1nn(-c2cc(OC)ccc2Cl)c(-c2ccccc2F)c(Cl)c1=O [Compound 122]
- Test F disease control rating ([1]; 50 ppm): 0%
- Test B disease control rating ([2]; 50 ppm): 19%
- Test C disease control rating ([3]; 50 ppm): 0%
- Test E disease control rating ([4]; 50 ppm): 0%
- Test A disease control rating ([5]; 50 ppm): 0%
- Test D disease control rating ([6]; 50 ppm): 0%

Structure (SMILES): CCOC(=O)c1nn(-c2cc(OC)cc(OC)c2)c(-c2ccc(F)cc2F)c(C)c1=O [Compound 28, ethyl 6-(2,4-difluorophenyl)-1-(3,5-dimethoxyphenyl)-1,4-dihydro-5-methyl-4-oxo-3-pyridazinecarboxylate]
- pest or weed control at 250 ppm ([1]; 250 ppm): 0%
- pest or weed control at 250 ppm ([2]; 250 ppm): 83%
- pest or weed control at 250 ppm ([3]; 250 ppm): 43%
- pest or weed control at 250 ppm ([4]; 250 ppm): 31%
- pest or weed control at 250 ppm ([5]; 250 ppm): 0%
- pest or weed control at 250 ppm ([6]; 250 ppm): 0%

Structure (SMILES): Cc1c(-c2nn(C)c(=O)c(C)c2-c2ccc(F)cc2Cl)csc1Br [Compound 15]
- Test F disease control rating ([1]; 50 ppm): 99%
- Test B disease control rating ([2]; 50 ppm): 100%
- Test C disease control rating ([3]; 50 ppm): 99%
- Test E disease control rating ([4]; 50 ppm): 92%
- Test A disease control rating ([5]; 50 ppm): 100%
- Test D disease control rating ([6]; 50 ppm): 24%

Structure (SMILES): CCc1nc(C)nc(-c2cc(OC)cc(OC)c2Cl)c1-c1c(F)cccc1F [Compound 57, 4-(2-chloro-3,5-dimethoxyphenyl)-5-(2,6-difluorophenyl)-6-ethyl-2-methylpyrimidine]
- pest or weed control at 50 ppm ([1]; 50 ppm): 97%
- pest or weed control at 50 ppm ([2]; 50 ppm): 100%
- pest or weed control at 50 ppm ([3]; 50 ppm): 100%
- pest or weed control at 50 ppm ([4]; 50 ppm): 96%
- pest or weed control at 50 ppm ([5]; 50 ppm): 100%
- pest or weed control at 50 ppm ([6]; 50 ppm): 73%

Structure (SMILES): Cn1nc(-c2cccnc2)c(-c2c(F)cccc2F)cc1=O [Compound 2]
- Test F disease control rating ([1]; 50 ppm): 0%
- Test B disease control rating ([2]; 50 ppm): 0%
- Test C disease control rating ([3]; 50 ppm): 0%
- Test E disease control rating ([4]; 50 ppm): 0%
- Test A disease control rating ([5]; 50 ppm): 0%
- Test D disease control rating ([6]; 50 ppm): 0%

Structure (SMILES): Cc1c(-c2ccc(F)cc2Cl)c(-c2ccsc2)nn(C)c1=O [Compound 5]
- Test F disease control rating ([1]; 50 ppm): 91%
- Test B disease control rating ([2]; 50 ppm): 74%
- Test C disease control rating ([3]; 50 ppm): 96%
- Test E disease control rating ([4]; 50 ppm): 93%
- Test A disease control rating ([5]; 50 ppm): 100%
- Test D disease control rating ([6]; 50 ppm): 21%

Structure (SMILES): COc1cc(OC)c(Cl)c(-c2nc(C)nc(C)c2-c2ccc(F)cc2Cl)c1 [Compound 42, 4-(2-chloro-3,5-dimethoxyphenyl)-5-(2-chloro-4-fluorophenyl)-2,6-dimethylpyrimidine]
- pest or weed control at 250 ppm ([1]; 250 ppm): 100%
- pest or weed control at 250 ppm ([2]; 250 ppm): 100%
- pest or weed control at 250 ppm ([3]; 250 ppm): 100%
- pest or weed control at 250 ppm ([4]; 250 ppm): 99%
- pest or weed control at 250 ppm ([5]; 250 ppm): 96%
- pest or weed control at 250 ppm ([6]; 250 ppm): 100%

Structure (SMILES): COc1cc(OC)c(Cl)c(-n2nc(NC(=O)OC(C)(C)C)c(=O)c(C)c2-c2ccc(F)cc2Cl)c1 [Compound 86]
- Test F disease control rating ([1]; 250 ppm): 0%
- Test B disease control rating ([2]; 250 ppm): 98%
- Test C disease control rating ([3]; 250 ppm): 0%
- Test E disease control rating ([4]; 250 ppm): 43%
- Test A disease control rating ([5]; 250 ppm): 83%
- Test D disease control rating ([6]; 250 ppm): 0%
